Where a name gives a salt, the structure may show the parent alone.

Data on four molecules can be found in patent US20030157573A1, “Use of Axl receptor for diagnosis and treatment of renal disease” (priority 2002, published 2003).

In assay [1] the test system is Normal human fetal lung fibroblasts (WI-38). Nature of the assay: Fibroblast proliferation assay (neutral red staining). Format: cell-based. As to conditions: for decrease in fibroblast proliferation: DFO. On the procedure: (§1) Normal human fetal lung fibroblasts (WI-38, Coriell Cell Repositories) were cultured and sub-cultured in DMEM, supplemented with 10% inactivated fetal bovine serum (FBS), 2 mM L-glutamine, 100 U/ml penicillin, 100 μg/ml streptomycin. Fibroblasts were grown to confluence in 25 cm^2 tissue flasks and sub-cultured after trypsinization (0.5% trypsin-EDTA in Hank's balanced solution without Ca^2+ and Mg^2+) at 37° C. in an atmosphere of 5% CO2. Two ml of trypsin were added to each flask and incubated for 5 min; then cultures were centrifuged (5 min, 1000 rpm) and fresh medium was added to the pellet. Splitting conditions were 1:4-1:6.
The proliferation rate of sub-confluent fibroblasts was evaluated by staining with neutral red (BioRad). Fibroblasts were seeded in 96-well plate (6×10^3/well) in 200 μl of supplemented DMEM/10% FBS. After overnight culture, wells were washed twice with supplemented DMEM/20% FBS. Then, either TGF-β (2-20 ng/ml) or deferoxamine mesylate (DFO, which leads to conditions of chemical hypoxia) at a concentration of […] was added in 200 μl of supplemented DMEM/2% FBS for either 16 hours, 24 hours, 72 hours, or 5 days.
In the case of glucose treatments, after overnight culture, cell-containing wells were washed twice with supplemented glucose-free DMEM/2% FBS. Working concentrations of glucose (5.5 mM, 15 mM, 27.5 mM, or 55 mM) were prepared by dissolving stock solution (110 mM) in supplemented DMEM without glucose/2% FBS. Prepared solutions of glucose were added to fibroblast cultures for either 24 or 72 hours.
Upon completion of incubation, cells were stained with 100 μl of 1% neutral red for 2 hours. After washing with cold PBS, fibroblast monolayers were fixed with 200 μl of ethanol-Sorenson buffer solution (1:1) for 10 min. Optical density was measured with an automated spectrophotometer (λ=540 nm).

For assay [2] the test system is unchanged. The assay can be described thus: Collagen production assay ([3H]-proline incorporation into collagenous proteins). Type of assay: cell-based. Conditions: concentrations of 2-20 ng/ml. How it is done:
as §1
Collagen production by confluent fibroblast monolayers was assessed by [^3H]-proline incorporation into collagenous proteins. Fibroblasts were seeded in 24-well tissue culture plates (2×10^4/well) and grown in 1 ml of supplemented DMEM/10%FBS until confluence.
Confluent fibroblast cultures were incubated with prepared solutions for either 24 or 48 hr. […] The production of collagen was determined as the difference between total [^3H]proline-containing proteins in the sample incubated without collagenase and those left after collagenase digestion. To determine the number of cells in each well, fibroblasts were detached by trypsinization on the last day of the experiment, and counted in a hemocytometer. […]

The subject of assay [3] is Ax1. The assay can be described thus: Microarray hybridization of treated human fibroblasts (Fibrosis DNA chip). Format: cell-based. As to conditions: TGF-β treatment of human fibroblasts. How it is done:
Microarray-based analysis of gene expression was based on the analysis of human fibroblasts subject to selected stimuli resulting in changes in extracellular collagen accumulation and proliferation—the hallmarks of fibrosis. According to the present invention, a specific “Fibrosis” DNA chip was first prepared followed by a microarray hybridization experiments with 19 different types of probes. Analysis of the results was carried out by proprietary algorithms, and analysis of the selected set of genes was performed by using bioinformatics and the scienctific literature.
A dedicated human “Fibrosis” DNA chip was prepared according to assignee's SDGI method (PCT Application Publication No. WO 01/75180) from growth-arrested human fibroblasts.
Probes for microarray hybridization were derived from these treated fibroblasts. In accordance with the present invention, treatments that are relevant for diabetic nephropathy development were used, such as glucose deprivation or hypoxia (modeling ischemic conditions that develop in fibrotic kidney); high glucose (modeling diabetic hyperglycemia) and TGF-β induction (modeling a fibrotic condition that is characterized by growth factor and cytokine imbalance).
In the next step, the RNA from these treated fibroblasts was extracted and used for preparation of probes for microarray hybridization. The scheme of hybridization is presented below: […]

Assay [4] relates to Ax1. The assay can be described thus: Western blot analysis of endogenous Ax1 expression after TGF-β stimulation. Format: cell-based, rat. On the procedure:
FIG. 1. […] Lane 1: NRK 49F cells; Lane2: NRK 49F cells with TGF-β 5 ng/ml, 24 hr; Lane 3: Rat1 cells; Lane4: Rat1 cells+TGF-β 5 ng/ml, 24 hr; Lane 5: W138 cells; Lane 6: HeLa cells; Lane 7: 293 cells.
FIG. 2. […] Total cell lysates from Rat1 cells exposed to TGF-β stimulation (5 ng/ml for 15 minutes, 30 minutes, 60 minutes and 2 hours) were run on gel and probed with anti Ax1 C20 Ab (Western blot analysis). Samples in the first and last lane are from cells without TGF-β stimulation.
In order to verify the chip hybridization results, the response of endogenous Ax1 expression to TGF-β stimulation was monitored by Western blot analysis. Total cellular proteins from various cell lines, (of which Rat1 cell line was also stimulated by TGF-β (5 ng/ml for 24 hr) were extracted, and the expression of Ax1 was analyzed by Western blot analysis. Thirty (30) μg of total cellular lysate were run on an 8% SDS gel.
(§2) Further experiments were done on Rat1 cells that were serum starved for 24 hr and then stimulated for the indicated time (15 min-2 hr) with 5 ng/ml TGF-β.

Assay [5] has as its system Ax1. The assay can be described thus: Ax1 immunoprecipitation and anti-phosphotyrosine blot after TGF-β stimulation. Format: cell-based, rat. As to conditions: serum starved Rat1 cells, 5 ng/ml TGF-β, 15 min-2 hr. How it is done:
FIG. 3. […] Rat1 cells exposed to TGF-β stimulation (5 ng/ml for 15 minutes, 30 minutes, 60 minutes and 2 hours) were used for immunoprecipitation. Ax1 was immunoprecipited with anti Ax1 M-20. Anti phosphotyrosine antibodies were used to monitor ax1 phosphorylation state following TGF-β treatment (5 ng/ml for 15 minutes-2 hr). Samples in the first and last lane are from cells without TGF-β stimulation.
as §2

Assay [6] deals with Ax1. Conditions: vascular smooth muscle cells; cited from earlier work.
For assay [7], the system named is mesangial cells. As to conditions: together with the extracellular domain of Ax1; blockade of the Gas6-mediated pathway; cited from earlier work.

For TGF-β, the “increase in the fibroblast proliferation rate” value in assay [1] (2 and 20 ng/ml, after 24 hrs treatment) is given as ~60%. The “enhancement in collagen production” value in assay [2] is 110-180%. The “induction of Ax1 expression” value in assay [3] is “at least 2 fold”. Besides, in assay [4] (Rat1 cells, TGF-β 5 ng/ml for 24 hr), the “endogenous Ax1 expression (Western blot)” value is “slight up-regulation”. The “Ax1 protein level (Western blot)” value in assay [4] (serum starved Rat1 cells, 5 ng/ml TGF-β, following 15 min) is given as “induces Ax1 protein level”. Besides, the Ax1 phosphorylation result in assay [5] is “Increase in its phosphorylation”.

Take `CCCCc1nc(Cl)c(CO)n1Cc1ccc(-c2ccccc2-c2nn[nH]n2)cc1` [losartan]: the “effect on angiotensin-stimulated Ax1 expression” value in assay [6] was “blocked the stimulatory effect of angiotensin on Ax1 expression”.

For `CC(=O)N(O)CCCCCNC(=O)CCC(=O)N(O)CCCCCNC(=O)CCC(=O)N(O)CCCCCN` [DFO, deferoxamine mesylate], the “decrease in fibroblast proliferation” value stood at 20% in assay [1] (after 16 hr incubation) and 80% in assay [1] (after 5 days of treatment).

For `CC(=O)CC(c1ccccc1)c1c(O)c2ccccc2oc1=O` (stereo not shown) [wafarin], the mesangial cell proliferation result in assay [7] is on record as “inhibit mesangial cell proliferation”.
